Assays:
Settings in all cases: stereoisomer not certain
[1] = HILIC, Merck SeQuant ZIC-HILIC, 150 × 2.1 mm, 5 µm, 0.75 mL/min, estimated dead time 0.44 min; A: water + 10 mM ammonium formate, pH 6; B: 5% water + 95% acetonitrile + 10 mM ammonium formate, pH 6; gradient (min/%B) 0/95 5/95 20/57 25/57 30/95 40/95
[2] = RP, Waters CORTECS T3, 100 × 2.1 mm, 2.7 µm, 0.1 mL/min, estimated dead time 2.2 min; A: water + 0.1% formic acid, pH 3; B: methanol + 0.1% formic acid, pH 3; gradient (min/%B) 0/5 5/5 25/95 25.1/100 35/100 35.1/5 45/5
[3] = RP, Waters CORTECS T3, 100 × 2.1 mm, 2.7 µm, 0.3 mL/min, estimated dead time 0.73 min; A: water + 0.1% formic acid, pH 3; B: methanol + 0.1% formic acid, pH 3; gradient (min/%B) 0/5 5/5 25/95 25.1/100 35/100 35.1/5 45/5
[4] = RP, Waters ACQUITY UPLC BEH C18, 100 × 2.1 mm, 1.7 µm, 0.1 mL/min, estimated dead time 2.2 min; A: water + 0.1% formic acid, pH 3; B: methanol + 0.1% formic acid, pH 3; gradient (min/%B) 0/5 5/5 25/100 30/100 30.1/5 35/5
[5] = RP, Waters CORTECS T3, 100 × 2.1 mm, 2.7 µm, 0.15 mL/min, estimated dead time 1.5 min; A: water + 0.1% formic acid, pH 3; B: methanol + 0.1% formic acid, pH 3; gradient (min/%B) 0/5 5/5 25/95 25.1/100 35/100 35.1/5 45/5
[6] = RP, Waters CORTECS T3, 100 × 2.1 mm, 2.7 µm, 0.25 mL/min, estimated dead time 0.88 min; A: water + 0.1% formic acid, pH 3; B: methanol + 0.1% formic acid, pH 3; gradient (min/%B) 0/0 1/0 6/5 30/100 35/100 35.1/0 40/0
[7] = RP, Waters ACQUITY UPLC BEH C18, 100 × 2.1 mm, 1.7 µm, 0.2 mL/min, estimated dead time 1.1 min; A: water + 0.025% formic acid + 20 mM ammonium acetate + 0.055% ammonium hydroxide, pH 7; B: methanol; gradient (min/%B) 0/5 5/5 25/100 30/100 30.1/5 35/5
[8] = RP, Waters CORTECS T3, 100 × 2.1 mm, 2.7 µm, 0.2 mL/min, estimated dead time 1.1 min; A: water + 0.045% formic acid + 0.11% ammonium hydroxide, pH 7; B: methanol; gradient (min/%B) 0/5 5/5 25/95 25.1/100 35/100 35.1/5 45/5
[9] = RP, Waters ACQUITY UPLC BEH C18, 100 × 2.1 mm, 1.7 µm, 0.2 mL/min, estimated dead time 1.1 min; A: water + 0.1% formic acid, pH 3; B: methanol + 0.1% formic acid, pH 3; gradient (min/%B) 0/5 5/5 25/100 30/100 30.1/5 35/5
[10] = RP, Waters CORTECS T3, 100 × 2.1 mm, 2.7 µm, 0.3 mL/min, estimated dead time 0.73 min; A: water + 0.1% formic acid, pH 3; B: methanol + 0.1% formic acid, pH 3; gradient (min/%B) 0/0 5/0 25/100 30/100 30.1/0 35/0
[11] = HILIC, Waters XBridge BEH Amide, 100 × 2.1 mm, 2.5 µm, 0.5 mL/min, estimated dead time 0.44 min; A: water + 0.1% acetic acid + 10 mM ammonium acetate, pH 4; B: 5% water + 95% acetonitrile + 0.1% acetic acid + 10 mM ammonium acetate, pH 4; gradient (min/%B) 0/95 5/95 20/57 25/57 30/95 40/95
[12] = RP, Thermo Scientific Hypercarb, 150 × 2.1 mm, 5 µm, 0.1 mL/min, estimated dead time 3.3 min; A: water + 0.1% formic acid, pH 3; B: methanol + 0.1% formic acid, pH 3; gradient (min/%B) 0/5 5/5 20/100 35/100 35.1/5 45/5

Molecule `N[C@@H](Cc1cc(I)c(Oc2ccc(O)cc2)c(I)c1)C(=O)O` [3,5-DIIODO-L-THYRONINE] has an LC retention time [1] of 8.69 min, an LC retention time [2] of 19.9 min and an LC retention time [3] of 15.9 min. For the same molecule, the LC retention time [4] was 19.7 min, the LC retention time [5] was 18.1 min and the LC retention time [6] was 18.6 min. It also gave an LC retention time [7] of 17.1 min, an LC retention time [8] of 17.2 min and an LC retention time [9] of 16.9 min. The LC retention time [10] was 16.1 min.
With `O=C(O)c1cc(=O)c2ccccc2[nH]1` [4-HYDROXY-2-QUINOLINECARBOXYLIC ACID] the LC retention time [2] was 14.2 min, the LC retention time [3] was 9.2 min and the LC retention time [4] was 14.2 min. The LC retention time [11] was 8.25 min, the LC retention time [5] was 12.1 min and the LC retention time [6] was 11.4 min. It also gave an LC retention time [7] of 8.26 min, an LC retention time [8] of 7.9 min and an LC retention time [9] of 10.9 min. For the same molecule, the LC retention time [10] was 10.5 min.
In the case of `CC(C)(CO)C(O)C(=O)NCCC(=O)O` [D-PANTOTHENIC ACID], the LC retention time [1] is reported as 10.5 min, the LC retention time [2] is reported as 11.2 min and the LC retention time [3] is reported as 5.14 min. It also gave an LC retention time [4] of 11.5 min, an LC retention time [12] of 21.3 min and an LC retention time [5] of 9.08 min. The LC retention time [6] was 8.69 min, the LC retention time [9] was 8.01 min and the LC retention time [10] was 8.6 min.
With `CC1NC(=O)NC1CCCCCC(=O)O` (stereo not given) [DETHIOBIOTIN] the LC retention time [1] was 3.19 min, the LC retention time [2] was 17.1 min and the LC retention time [3] was 12.6 min. For the same molecule, the LC retention time [4] was 16.9 min, the LC retention time [12] was 30 min and the LC retention time [5] was 15.1 min. For the same molecule, the LC retention time [6] was 14.9 min, the LC retention time [7] was 9.58 min and the LC retention time [8] was 9.32 min. It also gave an LC retention time [9] of 13.8 min and an LC retention time [10] of 13.2 min.
`CC(C)=CCNc1ncnc2nc[nH]c12` [N6-(DELTA2-ISOPENTENYL)-ADENINE] showed an LC retention time [1] of 0.64 min, an LC retention time [2] of 17 min and an LC retention time [3] of 12 min. The LC retention time [4] was 16.9 min, the LC retention time [11] was 0.72 min and the LC retention time [5] was 14.7 min. It also gave an LC retention time [6] of 14.2 min, an LC retention time [7] of 16.8 min and an LC retention time [8] of 16.9 min. For the same molecule, the LC retention time [9] was 13.4 min and the LC retention time [10] was 12.8 min.
`CC(=O)N[C@H](Cc1c[nH]c2ccccc12)C(=O)O` [N-ACETYL-D-TRYPTOPHAN] gave an LC retention time [1] of 8.49 min, an LC retention time [2] of 17.3 min and an LC retention time [3] of 12.5 min. For the same molecule, the LC retention time [4] was 17.3 min, the LC retention time [11] was 8.11 min and the LC retention time [5] was 15.2 min. It also gave an LC retention time [6] of 14.8 min, an LC retention time [8] of 10.4 min and an LC retention time [9] of 14 min. The LC retention time [10] was 13.2 min.
Work on `Nc1nc2nccnc2c(=O)[nH]1` [PTERIN] yielded an LC retention time [1] of 5.74 min, an LC retention time [2] of 4.93 min and an LC retention time [3] of 1.68 min. It also gave an LC retention time [4] of 4.78 min, an LC retention time [11] of 4.98 min and an LC retention time [5] of 3.45 min. The LC retention time [8] was 1.35 min, the LC retention time [9] was 2.44 min and the LC retention time [10] was 3.11 min.
Work on `Cc1cc2nc3c(=O)[nH]c(=O)nc-3n(CC(O)C(O)C(O)CO)c2cc1C` (stereo not given) [RIBOFLAVIN] yielded an LC retention time [2] of 16 min, an LC retention time [3] of 11.9 min and an LC retention time [4] of 15.5 min. The LC retention time [5] was 14.1 min, the LC retention time [6] was 14 min and the LC retention time [7] was 12.7 min. The LC retention time [8] was 13.2 min, the LC retention time [9] was 12.7 min and the LC retention time [10] was 12.5 min.
Molecule `O=c1[nH]c(=O)c2[nH]cnc2[nH]1` [XANTHINE] has an LC retention time [1] of 5.7 min, an LC retention time [2] of 4.3 min and an LC retention time [3] of 1.51 min. The LC retention time [11] was 6.47 min, the LC retention time [5] was 3.01 min and the LC retention time [6] was 2.63 min. The LC retention time [9] was 2.14 min and the LC retention time [10] was 2.39 min.
For `O=C(O)c1cc(=O)c2cccc(O)c2[nH]1` [XANTHURENIC ACID], the LC retention time [1] was 9.77 min, the LC retention time [2] was 13.9 min and the LC retention time [3] was 8.97 min. It also gave an LC retention time [4] of 13.8 min, an LC retention time [5] of 11.8 min and an LC retention time [6] of 11.1 min. For the same molecule, the LC retention time [9] was 10.4 min and the LC retention time [10] was 10.3 min.

Reference: the RepoRT retention time repository (doi:10.1016/j.jchromb.2020.122105)
